Literature values in patent publication US20240254438A1, “MULTI-REGIONAL HUMAN NEURAL CIRCUITS IN ASSEMBLOIDS DERIVED FROM PLURIPOTENT STEM CELLS” (The Board of Trustees of the Leland Stanford Junior …, priority 2021, published 2024).

Experiments:
[1] = biological target: element-binding protein (CBP) (Homo sapiens, UniProt Q92793); details: binds to element-binding protein (CBP)
[2] = test system: Wnt processing and secretion; details: cell-free assay
TNKS2 = biological target: T1, TNKS2 (Homo sapiens, UniProt Q9H2K2)
T1 sequence (Q9H2K2 1-1166): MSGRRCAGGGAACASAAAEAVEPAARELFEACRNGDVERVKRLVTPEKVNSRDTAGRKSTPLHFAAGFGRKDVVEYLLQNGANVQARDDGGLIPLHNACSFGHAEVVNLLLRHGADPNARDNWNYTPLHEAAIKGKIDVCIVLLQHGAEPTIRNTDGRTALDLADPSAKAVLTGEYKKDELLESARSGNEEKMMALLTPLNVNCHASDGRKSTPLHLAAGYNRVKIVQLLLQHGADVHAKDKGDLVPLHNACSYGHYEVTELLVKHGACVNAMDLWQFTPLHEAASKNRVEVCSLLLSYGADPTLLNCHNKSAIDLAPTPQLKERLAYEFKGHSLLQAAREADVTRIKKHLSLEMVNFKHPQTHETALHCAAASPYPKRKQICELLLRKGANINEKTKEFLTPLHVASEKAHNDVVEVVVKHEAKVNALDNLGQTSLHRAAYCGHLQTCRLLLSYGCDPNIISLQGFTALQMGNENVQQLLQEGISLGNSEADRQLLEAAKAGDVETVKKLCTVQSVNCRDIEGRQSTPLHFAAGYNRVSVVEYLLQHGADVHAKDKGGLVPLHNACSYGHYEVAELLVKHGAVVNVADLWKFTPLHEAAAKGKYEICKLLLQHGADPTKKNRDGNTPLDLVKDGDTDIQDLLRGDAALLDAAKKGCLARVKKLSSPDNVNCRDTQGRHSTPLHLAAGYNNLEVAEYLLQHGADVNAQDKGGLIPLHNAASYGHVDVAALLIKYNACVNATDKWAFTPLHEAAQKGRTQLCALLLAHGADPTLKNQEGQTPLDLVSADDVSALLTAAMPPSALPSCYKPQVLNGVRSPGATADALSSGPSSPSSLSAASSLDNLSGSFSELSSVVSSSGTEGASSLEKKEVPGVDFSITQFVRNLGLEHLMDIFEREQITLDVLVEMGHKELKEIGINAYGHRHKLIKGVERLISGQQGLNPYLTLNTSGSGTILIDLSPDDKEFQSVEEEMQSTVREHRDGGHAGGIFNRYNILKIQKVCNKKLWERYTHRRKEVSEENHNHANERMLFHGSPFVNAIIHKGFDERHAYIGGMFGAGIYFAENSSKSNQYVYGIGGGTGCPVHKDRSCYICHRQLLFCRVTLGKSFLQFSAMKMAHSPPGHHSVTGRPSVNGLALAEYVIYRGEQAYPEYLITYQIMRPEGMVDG

PORCN [3] = details: HEK293 cells, Wnt3A-mediated TCF luciferase
Smo heptahelical domain = Smo heptahelical domain (Homo sapiens, UniProt Q99835)
Smo heptahelical domain, sequence (Q99835 28-787): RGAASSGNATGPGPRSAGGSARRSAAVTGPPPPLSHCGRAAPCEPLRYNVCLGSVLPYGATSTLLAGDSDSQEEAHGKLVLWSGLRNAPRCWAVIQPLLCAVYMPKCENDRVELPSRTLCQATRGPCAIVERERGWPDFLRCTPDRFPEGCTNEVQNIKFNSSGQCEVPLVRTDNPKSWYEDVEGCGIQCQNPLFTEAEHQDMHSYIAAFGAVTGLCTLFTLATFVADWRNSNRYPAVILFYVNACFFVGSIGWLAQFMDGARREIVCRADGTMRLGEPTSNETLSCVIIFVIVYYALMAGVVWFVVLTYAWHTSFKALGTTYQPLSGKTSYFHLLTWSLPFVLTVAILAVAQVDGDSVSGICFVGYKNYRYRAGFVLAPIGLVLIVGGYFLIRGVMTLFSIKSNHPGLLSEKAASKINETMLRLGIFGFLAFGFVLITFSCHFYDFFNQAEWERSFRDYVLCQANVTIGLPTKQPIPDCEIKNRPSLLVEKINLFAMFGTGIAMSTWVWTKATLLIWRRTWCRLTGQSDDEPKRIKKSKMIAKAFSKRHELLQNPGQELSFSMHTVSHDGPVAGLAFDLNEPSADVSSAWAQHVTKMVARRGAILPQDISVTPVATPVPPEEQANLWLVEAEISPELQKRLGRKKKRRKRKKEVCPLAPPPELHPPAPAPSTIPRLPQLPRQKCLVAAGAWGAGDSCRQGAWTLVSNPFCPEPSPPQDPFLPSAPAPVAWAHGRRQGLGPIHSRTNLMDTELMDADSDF

PORCN [4] = test system: PORCN
Wnt signaling = details: TM3 cells

element-binding protein (CBP), sequence (Q92793 whole entry): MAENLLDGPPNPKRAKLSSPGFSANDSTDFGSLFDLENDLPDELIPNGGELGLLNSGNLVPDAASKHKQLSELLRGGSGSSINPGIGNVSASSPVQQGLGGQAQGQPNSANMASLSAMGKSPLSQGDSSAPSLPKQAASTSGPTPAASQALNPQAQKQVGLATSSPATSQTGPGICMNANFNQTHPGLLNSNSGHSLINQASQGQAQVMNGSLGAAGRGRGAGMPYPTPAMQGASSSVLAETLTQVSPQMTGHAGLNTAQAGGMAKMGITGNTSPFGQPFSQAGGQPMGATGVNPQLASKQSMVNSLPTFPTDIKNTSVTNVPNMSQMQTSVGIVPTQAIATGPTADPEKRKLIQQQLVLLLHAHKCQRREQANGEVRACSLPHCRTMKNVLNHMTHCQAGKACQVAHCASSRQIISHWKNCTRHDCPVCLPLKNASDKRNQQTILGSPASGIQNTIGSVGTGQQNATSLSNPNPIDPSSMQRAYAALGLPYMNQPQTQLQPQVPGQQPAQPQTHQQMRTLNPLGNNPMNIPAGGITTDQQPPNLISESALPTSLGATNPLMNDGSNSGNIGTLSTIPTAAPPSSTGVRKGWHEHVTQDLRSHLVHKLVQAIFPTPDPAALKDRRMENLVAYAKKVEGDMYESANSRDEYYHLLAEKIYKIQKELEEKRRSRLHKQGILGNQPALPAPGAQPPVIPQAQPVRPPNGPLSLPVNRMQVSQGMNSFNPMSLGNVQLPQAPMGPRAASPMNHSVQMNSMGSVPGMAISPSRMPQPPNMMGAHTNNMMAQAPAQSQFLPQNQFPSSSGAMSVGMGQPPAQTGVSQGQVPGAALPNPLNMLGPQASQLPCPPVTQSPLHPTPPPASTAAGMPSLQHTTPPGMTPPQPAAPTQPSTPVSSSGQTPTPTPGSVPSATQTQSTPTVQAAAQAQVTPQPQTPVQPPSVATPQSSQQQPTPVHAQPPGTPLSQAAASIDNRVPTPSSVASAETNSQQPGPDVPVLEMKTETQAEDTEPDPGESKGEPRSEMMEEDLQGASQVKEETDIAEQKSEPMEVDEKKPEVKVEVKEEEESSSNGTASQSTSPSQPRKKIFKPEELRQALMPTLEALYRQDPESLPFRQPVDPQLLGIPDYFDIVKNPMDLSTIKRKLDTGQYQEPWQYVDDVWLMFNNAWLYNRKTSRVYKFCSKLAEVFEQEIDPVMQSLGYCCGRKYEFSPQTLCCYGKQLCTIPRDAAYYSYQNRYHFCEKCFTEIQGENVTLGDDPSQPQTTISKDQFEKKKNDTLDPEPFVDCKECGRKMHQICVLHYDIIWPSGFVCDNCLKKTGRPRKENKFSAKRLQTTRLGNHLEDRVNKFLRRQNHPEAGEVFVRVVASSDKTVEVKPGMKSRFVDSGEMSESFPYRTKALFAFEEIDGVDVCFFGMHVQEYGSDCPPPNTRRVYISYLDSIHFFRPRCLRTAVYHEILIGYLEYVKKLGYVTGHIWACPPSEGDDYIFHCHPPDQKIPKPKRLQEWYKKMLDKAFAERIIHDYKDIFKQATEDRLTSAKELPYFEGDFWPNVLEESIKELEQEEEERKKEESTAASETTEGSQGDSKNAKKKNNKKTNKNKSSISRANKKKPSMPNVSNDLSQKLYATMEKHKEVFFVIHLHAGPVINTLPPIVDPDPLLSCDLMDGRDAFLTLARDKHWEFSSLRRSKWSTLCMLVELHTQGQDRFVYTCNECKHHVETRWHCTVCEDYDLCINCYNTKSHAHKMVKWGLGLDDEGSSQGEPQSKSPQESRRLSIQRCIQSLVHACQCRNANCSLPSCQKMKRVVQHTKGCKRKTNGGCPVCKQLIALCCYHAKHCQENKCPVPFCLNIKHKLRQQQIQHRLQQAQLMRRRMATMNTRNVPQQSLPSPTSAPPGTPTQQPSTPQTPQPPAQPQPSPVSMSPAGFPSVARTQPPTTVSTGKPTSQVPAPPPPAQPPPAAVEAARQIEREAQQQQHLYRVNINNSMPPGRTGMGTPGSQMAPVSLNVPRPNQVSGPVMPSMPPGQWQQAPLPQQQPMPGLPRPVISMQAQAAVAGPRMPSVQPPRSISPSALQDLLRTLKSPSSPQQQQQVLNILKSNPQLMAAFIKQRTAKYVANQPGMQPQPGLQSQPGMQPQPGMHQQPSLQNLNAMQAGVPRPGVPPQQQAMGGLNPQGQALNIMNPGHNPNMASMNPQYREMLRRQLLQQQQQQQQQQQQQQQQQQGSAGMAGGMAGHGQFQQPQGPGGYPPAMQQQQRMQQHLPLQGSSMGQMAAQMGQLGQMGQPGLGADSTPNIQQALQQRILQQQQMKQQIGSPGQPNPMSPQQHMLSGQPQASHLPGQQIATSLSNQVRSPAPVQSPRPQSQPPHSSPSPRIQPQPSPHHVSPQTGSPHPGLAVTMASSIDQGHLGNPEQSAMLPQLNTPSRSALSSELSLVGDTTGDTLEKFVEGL

O=C1[C@H](Cc2ccc(O)cc2)N2C(=O)CCN(C(=O)NCc3ccccc3)[C@H]2CN1Cc1cccc2ccccc12 [ICG-001]
IC50 [1]: 3000 nM

Cc1ccc2nc(NC(=O)CSc3nc4c(c(=O)n3-c3ccccc3)SCC4)sc2c1 [IWP-2]
IC50 [2]: 27 nM

COc1ccc(-n2c(SCCCN3C(=O)c4cccc5cccc(c45)C3=O)nnc2-c2ccncc2)cc1 [WIKI4]
IC50 (TNKS2): 15 nM

Cc1cc(-c2ccc(CC(=O)Nc3ccc(-c4cccnc4)cc3)cc2)ccn1 [Wnt-C59]
IC50 (PORCN [3]): 0.074 nM

CNC1CCC(N(Cc2cccc(-c3ccncc3)c2)C(=O)c2sc3ccccc3c2Cl)CC1 (stereo not shown) [SAG]
Kd (Smo heptahelical domain): 59 nM

O=C(CSc1nc2c(c(=O)n1-c1ccccc1)SCC2)Nc1ccc(-c2ccccc2)cn1 [IWP-L6]
EC50 (PORCN [4]): 0.5 nM

Cc1cc(-c2ncc(CC(=O)Nc3ccc(-c4cnccn4)cn3)cc2C)ccn1 [LGK-974]
IC50 (Wnt signaling): 0.4 nM
